Usually EC50 stands for the midpoint of the concentration-response curve. Low readings indicate greater potency, high ones weaker potency.

This test has as its system Glo-Response ARE-luc2P HEK293 cell line. The test is described as follows: ARE luciferase reporter cell-based assay.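 Further: luciferase signal tracks Nrf2 activation of the ARE once compounds disrupt KEAP1-Nrf2 binding, read with One-Glo reagent, DMSO serving as low control.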 To be noted: average of results obtained.

The molecule `CCn1nnc2c(C)c([C@H](CC(=O)O)c3ccc(C)c(CN4C[C@H]5CCCCN5c5ncccc5S4(=O)=O)c3)ccc21` (single isomer, unassigned) [Example 146, (*R)-3-(3-(((*R)-5,5-Dioxido-7,7a,8,9,10,11-hexahydro-6H-dipyrido[2,1-d:2′,3′-f][1,2,5]thiadiazepin-6-yl)methyl)-4-methylphenyl)-3-(1-ethyl-4-methyl-1H-benzo[d][1,2,3]triazol-5-yl)propanoic Acid] yielded a concentration for a half-maximal effect (EC50) (Homo sapiens, HEK293, 24 h) of 4.2 nM.
In the case of `Cc1ccc(C(c2ccn3c(C(F)(F)F)nnc3c2C)C(C)C(=O)O)cc1CN1C[C@@H]2CCCCN2c2ncccc2S1(=O)=O` (stereo in doubt) [Example 129, 3-(3-(((*S)-5,5-Dioxido-7,7a,8,9,10,11-hexahydro-6H-dipyrido[2,1-d:2′,3′-f][1,2,5]thiadiazepin-6-yl)methyl)-4-methylphenyl)-2-methyl-3-(8-methyl-3-(trifluoromethyl)-[1,2,4]triazolo[4,3-a]pyridine-7-yl)propanoic Acid], for the setting “24 hours”, the EC50 amounted to 6.8 nM.
The molecule `CCc1c([C@H](c2ccc(C)c(CN3C[C@H]4CCCCN4c4ncc(C)cc4S3(=O)=O)c2)C(C)C(=O)O)ccn2c(C(F)(F)F)nnc12` (relative stereo) [Example 515, (3*S)-3-(8-Ethyl-3-(trifluoromethyl)-[1,2,4]triazolo[4,3-a]pyridin-7-yl)-2-methyl-3-(4-methyl-3-(((*R)-3-methyl-5,5-dioxido-7,7a,8,9,10,11-hexahydro-6H-dipyrido[2,1-d:2′,3′-f][1,2,5]thiadiazepin-6-yl)methyl)phenyl)propanoic Acid] came in with a concentration giving a half-maximal response (EC50) (Homo sapiens, HEK293, 24 h) of 1.33 nM.
On the same count and under the same terms, the figure for `Cc1ccc([C@@H](c2ccn3c(C(F)(F)F)nnc3c2C)C(C)(C)C(=O)O)cc1CN1CC2(CCOCC2)Oc2nc(NCCCO)ccc2S1(=O)=O` (single isomer, unassigned) [Example 115, (*S)-3-(3-((7′-((3-Hydroxypropyl)amino)-1′,1′-dioxido-2,3,5,6-tetrahydrospiro[pyran-4,4′-pyrido[2,3-b][1,4,5]oxathiazepin]-2′(3′H)-yl)methyl)-4-methylphenyl)-2,2-dimethyl-3-(8-methyl-3-(trifluoromethyl)-[1,2,4[triazolo[4,3-a]pyridine-7-yl)propanoic Acid] is 133 nM.
`Cc1ccc([C@@H](CC(=O)O)c2ccn3c(C(F)(F)F)nnc3c2C)cc1CN1C[C@@H]2COCCN2c2ncccc2S1(=O)=O` (relative stereo) [Example 277, (*R)-3-(3-(((*R)-5,5-Dioxido-7a,8,10,11-tetrahydro-[1,4]oxazino[3,4-d]pyrido[2,3-f][1,2,5]thiadiazepin-6(7H)-yl)methyl)-4-methylphenyl)-3-(8-methyl-3-(trifluoromethyl)-[1,2,4]triazolo[4,3-a]pyridin-7-yl)propanoic Acid] had an EC50 (24 hours) of 102 nM.
On to `Cc1ccc([C@H](CC(=O)O)c2ccn3c(C(F)(F)F)nnc3c2C)cc1CN1C[C@@H]2CCCCN2c2ncc(C(F)(F)F)cc2S1(=O)=O` (relative stereo) [Example 198, (*S)-3-(3-(((*S)-5,5-Dioxido-3-(trifluoromethyl)-7,7a,8,9,10,11-hexahydro-6H-dipyrido[2,1-d:2′,3′-f][1,2,5]thiadiazepin-6-yl)methyl)-4-methylphenyl)-3-(8-methyl-3-(trifluoromethyl)-[1,2,4]triazolo[4,3-a]pyridin-7-yl)propanoic Acid], for which a half-maximal response (Homo sapiens, HEK293, 24 h) (EC50) required 5.3 nM.
The same measure, in the same setting: the result for `Cc1ccc([C@H](CC(=O)O)c2ccn3c(C(F)(F)F)nnc3c2C)cc1CN1CC2(CCOCC2)Oc2ccc(F)cc2S1(=O)=O` (single isomer, unassigned) [Example 415, (*S)-3-(3-((8-fluoro-1,1-dioxido-2′,3′,5′,6′-tetrahydrospiro[benzo[b][1,4,5]oxathiazepine-4,4′-pyran]-2(3H)-yl)methyl)-4-methylphenyl)-3-(8-methyl-3-(trifluoromethyl)-[1,2,4]triazolo[4,3-a]pyridin-7-yl)propanoic Acid] reads 5.1 nM; that for `Cc1ccc([C@@H](c2ccc3c(nnn3C3CC3)c2C)C(C)(C)C(=O)O)cc1CN1CC2(CCNCC2)Oc2ncccc2S1(=O)=O` (single isomer, unassigned) [Example 648, (*S)-3-(1-Cyclopropyl-4-methyl-1H-benzo[d][1,2,3]triazol-5-yl)-3-(3-((1′,1′-dioxidospiro[piperidine-4,4′-pyrido[2,3-b][1,4,5]oxathiazepin]-2′(3′H)-yl)methyl)-4-methylphenyl)-2,2-dimethylpropanoic Acid], 1350 nM.
Consider `Cc1cnc2c(c1)S(=O)(=O)N(Cc1cc([C@@H](c3ccn4c(C(F)(F)F)nnc4c3C)C(C)(C)C(=O)O)ccc1C)CC1(CCOCC1)O2` (single isomer, unassigned) [Example 407, (*S)-2,2-dimethyl-3-(4-methyl-3-((8′-methyl-1′,1′-dioxido-2,3,5,6-tetrahydrospiro[pyran-4,4′-pyrido[2,3-b][1,4,5]oxathiazepin]-2′(3′H)-yl)methyl)phenyl)-3-(8-methyl-3-(trifluoromethyl)-[1,2,4]triazolo[4,3-a]pyridin-7-yl)propanoic Acid], for which the EC50 (24 hours) came to 1.47 nM.
`Cc1ccc([C@H](CC(=O)O)c2ccn3c(C(F)(F)F)nnc3c2C)cc1CN1CC2(CC2)Oc2nc(Cl)ccc2S1(=O)=O` (single isomer, unassigned) [Example 100, (*S)-3-(3-((7′-Chloro-1′,1′-dioxidospiro(cyclopropane-1.4′-pyrido[2,3-b][1,4,5]oxathiazepin]-2′(3′H)-yl)methyl)-4-methylphenyl)-3-(8-methyl-3-(trifluoromethyl)-[1,2,4]triazolo[4,3-a]pyridin-7-yl)propanoic Acid] gave a concentration for a half-maximal effect (EC50) (Homo sapiens, HEK293, 24 h) of 13.3 nM.
Under “Homo sapiens, HEK293, 24 h”, `Cc1ccc(C(c2ccn3c(C(F)(F)F)nnc3c2C)C(C)(C)C(=O)O)cc1CN1CC2(CC2)Oc2ncccc2S1(=O)=O` (stereo not drawn) [Example 316, 3-(3-((1′,1′-Dioxidospiro[cyclopropane-1,4′-pyrido[2,3-b][1,4,5]oxathiazepin]-2′(3′H)-yl)methyl)-4-methylphenyl)-2,2-dimethyl-3-(8-methyl-3-(trifluoromethyl)-[1,2,4]triazolo[4,3-a]pyridin-7-yl)propanoic Acid] had an EC50 of 1.3 nM.
Still for that read-out and setting: the figure for `Cc1c([C@@H](CC(=O)O)c2ccc(Cl)c(CN3CC4(COC4)Oc4ccccc4S3(=O)=O)c2)ccn2c(C(F)(F)F)nnc12` (single isomer, unassigned) [Example 97, (*S)-3-(4-Chloro-3-((1′,1′-dioxoidospiro[benzo[b]]oxethiazepine-4,3′-oxetan]-2(3H)-yl)methyl)phenyl)-3-(8-methyl-3-(trifluoromethyl)-[1,2,4]triazolo[4,3-a]pyridine-7-yl)propanoic Acid] is 5290 nM; for `Cc1cc2cc([C@H](c3ccc(C)c(CN4CC5(CC5)Oc5nc(OCCN6CCCC6)c(C)cc5S4(=O)=O)c3)C(C)(C)C(=O)O)n(C)c2nn1` (single isomer, unassigned) [Example 353, (*R)-3-(3,7-Dimethyl-7H-pyrrolo[2,3-c]pyridazine-6-yl)-2,2-dimethyl-3-(4-methyl-3-((8′-methyl-1′,1′-dioxido-7′-(2-(pyrrolidin-1-yl)-ethoxy)spiro[cyclopropane-1,4′-pyrido[2,3-b][1,4,5]oxathiazepin]-2′-(3′H)-yl)methyl)phenyl)propanoic Acid] it is 1410 nM; for `Cc1ccc(C(c2ccn3c(C(F)F)nnc3c2C)C(C)(C)C(=O)O)cc1CN1CC2(CC2)Oc2ncccc2S1(=O)=O` (racemic) [Example 566, (R/S)-3-(3-(Difluoromethyl)-8-methyl-[1,2,4]triazolo[4,3-a]pyridin-7-yl)-3-(3-((1′,1′-dioxidospiro[cyclopropane-1,4′-pyrido[2,3-b][1,4,5]oxathiazepin]-2′(3′H)-yl)methyl)-4-methylphenyl)-2,2-dimethylpropanoic Acid] it is 6.81 nM.
Still for that read-out and setting: the figure for `Cc1cnc2c(c1)S(=O)(=O)N(Cc1cc([C@H](c3ccn4c(C(F)(F)F)nnc4c3C)[C@@H](C)C(=O)O)ccc1C)CC1(CC1)O2` (relative stereo) [Example 546, (2*R,3*R)-2-Methyl-3-(4-methyl-3-((8′-methyl-1′,1′-dioxidospiro[cyclopropane-1,4′-pyrido[2,3-b][1,4,5]oxathiazepin]-2′(3′H)-yl)methyl)phenyl)-3-(8-methyl-3-(trifluoromethyl)-[1,2,4]triazolo[4,3-a]pyridin-7-yl)propanoic Acid] is greater than 20000 nM.
Consider `Cc1ccc([C@H](CC(=O)O)c2ccn3c(C(F)(F)F)nnc3c2C)cc1CN1C[C@@H]2COCCN2c2ncccc2S1(=O)=O` (relative stereo) [Example 276, (*S)-3-(3-(((*R)-5,5-Dioxido-7a,8,10,11-tetrahydro-[1,4]oxazino[3,4-d]pyrido[2,3-f][1,2,5]thiadiazepin-6(7H)-yl)methyl)-4-methylphenyl)-3-(8-methyl-3-(trifluoromethyl)-[1,2,4]triazolo[4,3-a]pyridin-7-yl)propanoic Acid], for which a half-maximal effect (24 hours) (EC50) was put at 112 nM.
As to `Cc1cnc2c(c1)S(=O)(=O)N(Cc1cc([C@H](CC(=O)O)c3ccn4c(C(F)(F)F)nnc4c3C)ccc1C)C[C@@H]1CCCCN21` (relative stereo) [Example 307, (*S)-3-(4-methyl-3-(((*S)-3-methyl-5,5-dioxido-7,7a,8,9,10,11-hexahydro-6H-dipyrido[2,1-d:2′,3′-f][1,2,5]thiadiazepin-6-yl)methyl)phenyl)-3-(8-methyl-3-(trifluoromethyl)-[1,2,4]triazolo[4,3-a]pyridin-7-yl)propanoic Acid], the EC50 (Homo sapiens, HEK293, 24 h) turned out to be 2 nM.
On the same count and under the same terms, the figure for `Cc1cc2cc([C@H](c3ccc(C)c(CN4CC5(CC5)Oc5nc(OCCN6CCCCC6)c(C)cc5S4(=O)=O)c3)C(C)(C)C(=O)O)n(C)c2nn1` (single isomer, unassigned) [Example 351, (*R)-3-(3,7-Dimethyl-7H-pyrrolo[2,3-c]pyridazine-6-yl)-2,2-dimethyl-3-(4-methyl-3-((8′-methyl-1′,1′-dioxido-7′-(2-(piperidine-1-yl)-ethoxy)spiro[cyclopropane-1,4′-pyrido[2,3-b][1,4,5]oxathiazepin]-2′,(3′H)-yl)methyl)phenyl)propanoic Acid] is 836 nM.

These data come from US10947252B2, “Inhibitors of KEAP1-Nrf2 protein-protein interaction” (Janssen Pharmaceutica NV, priority 2018, dated 2021).
